Consider one compound from patent publication US20250170108A1, “CHEMOTHERAPY FOR CANCER USING AZABICYCLO COMPOUND” (TAIHO PHARMACEUTICAL CO., LTD., priority 2017, published 2025).

A short description of series [1]: Body weight change ratio in MC38 transplanted model (Example 1). The series is classed as in vivo, mouse. As for the experimental part: (§1) An electronic balance for animals was used for body weight measurement. The body weight change ratio on the nth day (BWCn) was calculated from the body weight on the nth day (BWn) in accordance with the following equation.
(§2) An appropriate amount of water for injection described in the Japanese Pharmacopeia was added for adjusting hypromellose concentration to 0.5 w/v %, and the mixture was then stirred with a stirrer to completely dissolve hypromellose, to prepare a 0.5% aqueous hypromellose solution. Compound 1 was ground with an agate mortar, and then suspended to a predetermined concentration with the 0.5% aqueous hypromellose solution, and ultrasonic treatment was performed to obtain a homogeneous suspension. The suspension containing Compound 1 was orally administered once a day over 5 consecutive days at a dose of 10 mg/kg/day or 14 mg/kg/day, followed by cessation of administration for 2 days, and these processes were repeated three times.
(§3) The anti-mouse PD-1 antibody (anti-mPD-1 Ab) was prepared by diluting InVivoMab anti-mouse PD-1 (CD279) (Clone: RMP-1-14, Bio X cell Co.) to a predetermined concentration with Otsuka Normal Saline immediately before administration. On the first day of administration (day 1), the diluted product was intraperitoneally administered as the anti-mouse PD-1 antibody at a dose of 0.05 mg/body.

Series [2] concerns mouse bowel cancer cell line MC38. The series is described as follows: Antitumor effect of Compound 1 and anti-mouse PD-1 antibody in bowel cancer cell transplanted model (Example 1). It is filed as in vivo. The following applies: for RTV Day 22 (mean ± SD): MC38 transplanted mice; for T/C (%): Day 22. The protocol:
(§4) Mouse bowel cancer cell line MC38 was obtained from Dr. Yoshihiro Hayakawa (University of Toyama, Toyama, Japan), and cultured in a RPMI1640 (Sigma-Aldrich) medium (culture solution) containing 10% fetal bovine serum (FBS). MC38 was subcultured at a ratio of 1:3 to 1:5 once or twice a week in an incubator with 5% CO2 at 37° C.
(§5) A cell suspension with a concentration of 2×10^6 cells/0.1 mL was transplanted subcutaneously in the vicinity of the right backmost rib bone of a 6-week-old C57BL/6JJcI mouse (CLEA Japan, Inc.).
(§6) The tumor was grown until reaching a tumor volume (TV) of 50 to 300 mm^3 after the transplantation. Degimatic Caliper was used for tumor diameter measurement. The major diameter and the minor diameter of the tumor were measured, and TV was calculated from the following equation.
(§7) By a stratified random allocation method using TV as an index, 6 animals were allocated to each group. The day when grouping (n=6) was performed was defined as Day 0.
(§8) The relative tumor volume (RTV) and the relative tumor volume change ratio (T/C) were calculated from TV.
RTV and T/C were calculated from the following equation.
as §2, §3

The test system is the same in series [3]. Description: Antitumor effect of Compound 1 and anti-mouse PD-L1 or anti-mouse CTLA-4 antibody in bowel cancer cell transplanted model (Example 3). The series is classed as in vivo. The protocol: as §4, §5, §6, §7, §8, §2
The same procedure as described in Example 1 was carried out except that the anti-mouse PD-L1 antibody or the anti-CTLA-4 antibody was used instead of the anti-mouse PD-1 antibody. […]

The nature of series [4]: Body weight change ratio in MC38 transplanted model (Example 3). It is filed as in vivo, mouse. As to conditions: Compound 1 14 mg/kg/day p.o. days 1-5, 8-12, 15-19. The protocol: as §1
The same procedure as described in Example 1 was carried out except that the anti-mouse PD-L1 antibody or the anti-CTLA-4 antibody was used instead of the anti-mouse PD-1 antibody.
The anti-mouse PD-L1 antibody (anti-mPD-L1 Ab) was prepared by diluting InVivoMab anti-mouse PD-L1 (B7-H1) (Clone: 10F.9G2, Bio X cell Co.) to a predetermined concentration with Otsuka Normal Saline immediately before administration. On the first day of administration (day 1), the diluted product was intraperitoneally administered using the anti-mouse PD-L1 antibody at a dose of 0.05 mg/body. The anti-mouse CTLA-4 antibody (anti-mCTLA-4 Ab) was prepared by diluting InVivoMab anti-mouse CTLA-4 (CD152) (Clone: 9H10, Bio X cell Co.) to a predetermined concentration with Otsuka Normal Saline immediately before administration. On the first day of administration (day 1), the diluted product was intraperitoneally administered using the anti-mouse CTLA-4 antibody at a dose of 0.05 mg/body.

Series [5] has as its system tumor infiltrating leucocytes (CD8 positive cells, regulatory T-cells). Description: Immunostimulatory action: flow cytometric analysis of tumor infiltrating lymphocytes in MC38 transplanted model (Example 2). The series is classed as in vivo, mouse. The protocol:
Mouse bowel cancer cell line MC38 was cultured using a RPMI1640 (Waco Pure Chemical Industries, Ltd.) medium containing 10% FBS. MC38 was subcultured at a ratio of 1:5 to 1:10 once or twice a week in an incubator with 5% CO2 at 37° C.
A cell suspension with a concentration of 2×10^6 cells/0.1 mL was transplanted subcutaneously in the vicinity of the right backmost rib bone of a 6-week-old C57BL/6NJCrI mouse (Charles River Laboratories Japan Inc.).
The tumor was grown until reaching a tumor volume (TV) of 110 to 360 mm^3 after the transplantation. Degimatic Caliper was used for tumor diameter measurement. The major diameter and the minor diameter of the tumor were measured, and TV was calculated from the following equation.
By a stratified random allocation method using TV as an index, 5 animals were allocated to each group. The day when grouping (n=5) was performed was defined as Day 1.
Agents prepared by the same method as described in Example 1 were used for administration. Anti-mouse PD-1 antibody (anti-mPD-1 Ab), CD279(PD-1)Monoclonal Antibody (RMP1-14), eBioscience (Thermo Fisher Scientific), was used as an anti-mouse PD-1 antibody, and intraperitoneally administered at a dose of 0.05 mg/body on the first day of administration (Day 1). Compound 1 was orally administered at a dose of 14 mg/kg/day once a day on Days 1-5 and 8-9.
For detecting expression of immunity-related factors, flow cytometric analysis was performed for immunological monitoring. On Day 10, the tumor was sampled, and tumor infiltrating lymphocytes were then prepared using Tumor Dissociation Kit, mouse (Miltenyi Biotec). Thereafter, the antibody was stained using FoxP3/Transcription Factor Staining Buffer Set (thermo Fisher Scientific), and analysis was then performed using Flow Cytometer FACSVerse (BD Bioscience). […]

The mark [6] stands for this setting: Compound 1 10 mg/kg/day p.o. days 1-5, 8-12, 15-19.
Setting [7] is: Compound 1 14 mg/kg/day p.o. days 1-5, 8-12, 15-19.
The mark [8] stands for this setting: Day 10, Compound 1 14 mg/kg/day p.o. Days 1-5 and 8-9, Dunnett test.

With `CCc1cc(C(N)=O)ccc1-n1nc(C(C)C)c2c(-n3cnc(-c4cnn(C)c4)c3)ccnc21` [Compound 1, 3-ethyl-4-{3-isopropyl-4-(4-(1-methyl-1H-pyrazol-4-yl)-1H-imidazol-1-yl)-1H-pyrazolo[3,4-b]pyridin-1-yl}benzamide], the “BWC(%) Day 22 Mean” value in series [1] (setting [6]) is listed as 13.5%; in series [1] (setting [7]) it was 12.8%; in series [4] it was 6.63%. In addition, the “RTV on Day 22 as compared to the control group” value in series [2] (Aspin-Welch's t-test, Example 1) is on record as “significantly lower RTV”; in series [3] (Aspin-Welch's t-test, Example 3) it was “significantly lower RTV”. Further, the “RTV Day 22 (mean ± SD)” value in series [2] (setting [6]) was determined as 7.93 ± 1.29; in series [2] (setting [7]), 5.59 ± 0.92. Further, the “T/C (%)” value in series [2] (setting [6]) was determined as 41.7%; in series [2] (setting [7]), 29.4%; in series [3] (Day 22, Compound 1 14 mg/kg/day p.o. days 1-5, 8-12, 15-19), 49.7%. In series [3] (Compound 1 14 mg/kg/day p.o. days 1-5, 8-12, 15-19, MC38 transplanted mice), the “RTV Day 22 (mean ± SE)” value stood at 8.32 ± 0.51. In series [5] (setting [8]), the “ratio of CD8 positive cells in leucocytes (CD45 positive cells) as compared to the control group” value was “significantly higher”. In series [5] (setting [8]), the “ratio of regulatory T-cells in T-cells as compared to the control group” value is “significantly lower”. The immunostimulatory activity result in series [5] (conclusion from Example 2) is “shows immunostimulatory activity”.
